Assay results as given in paper PMC8515607 (ACS Omega, 2021).
Read-outs that look alike come from different tables or passages of the source.

Key:
A549 [1] = experiment: cells; assay type: cell-based, human; details: for A549 SI: selectivity index = IC50 BALB/3T3 / IC50 A549
Excerpt: (§1) The A549 and MCF7 cell lines were purchased from the European Collection of Authenticated Cell Cultures (ECACC, Salisbury, U.K., 86012804 and 86012803). The LoVo cell line was purchased from the American Type Culture Collection (CCL-229, ATCC, Manassas, VA), and LoVo/DX by courtesy of Prof. E. Borowski (Technical University of Gdańsk, Gdańsk, Poland). The BALB/3T3 cell line was purchased from the American Type Culture Collection (CCL-163, ATCC, Manassas, VA). All of the cell lines are maintained in the Institute of Immunology and Experimental Therapy (IIET), Wroclaw, Poland.
(§2) A549 cells were cultured in a mixture of OptiMEM and Roswell Park Memorial Institute (RPMI) 1640 (1:1) medium (IIET, Wroclaw, Poland), supplemented with 10% fetal bovine serum HyClone (GE Healthcare) and 2 mM L-glutamine (Sigma-Aldrich, Germany). MCF7 cells were cultured in a mixture of Eagle’s medium (IIET, Wroclaw, Poland), supplemented with 10% fetal bovine serum, 2 mM L-glutamine, and insulin (Sigma-Aldrich, Germany). LoVo and LoVo/DX cells were cultured in F12K medium (Corning), supplemented with 10% fetal bovine serum HyClone (GE Healthcare) and 0.1 μg/mL doxorubicin (Accord) for LoVo/DX. BALB/3T3 fibroblasts were cultured in Dulbecco’s medium (Gibco), supplemented with 10% fetal bovine serum (GE Healthcare) and 2 mM L-glutamine (Sigma-Aldrich, Germany). All culture media contained antibiotics: 100 U/mL penicillin (Polfa-Tarchomin, Poland) and 0.1 mg/mL streptomycin (Sigma-Aldrich, Germany). All cell lines were cultured during entire experiment in humid atmosphere at 37 °C and 5% CO2.
(§3) All cell lines were exposed to each tested agent at different concentrations in the range 100–0.00001 μg/mL for 72 h. The cells were also exposed to the reference drug cisplatin (Teva Pharmaceuticals, Poland) and doxorubicin (Accord Healthcare Limited, U.K.). Additionally, all cell lines were exposed to dimethyl sulfoxide (DMSO) (solvent used for tested compounds) (POCh, Poland) at concentrations corresponding to those present in tested agents dilutions. After 72 h, sulforhodamine B (SRB) assay was performed.[57]
(§4) After 72 h of incubation with the tested compounds, the cells were fixed in situ by gently adding cold 50% trichloroacetic acid (TCA) (POCh, Poland) and were incubated at room temperature for 1 h. Then, the wells were washed four times with water and air-dried. Next, 0.1% solution of sulforhodamine B (Sigma-Aldrich, Germany) in 1% acetic acid (POCh, Poland) was added to each well and the plates were incubated at room temperature for 0.5 h. After incubation time, unbound dye was removed by washing plates four times with 1% acetic acid, whereas stain bound to cells was solubilized with 10 mM Tris base (Sigma-Aldrich, Germany). Absorbance of each solution was read at Synergy H4 Hybrid Multi-Mode Microplate Reader (BioTek Instruments) at the 540 nm wavelength.
(§5) IC50 values were calculated in Excel sheet using formulas adapted by Mateusz Psurski fromCheburator 0.4, Dmitry Nevozhay software (version 1.2.0 software by Dmitry Nevozhay, 2004–2014, http://www.cheburator.nevozhay.com, freely available) for each experiment.[58] Compounds at each concentration were tested in triplicate in a single experiment, and each experiment was repeated at least three times independently.

LoVo/DX = experiment: cells; assay type: cell-based, human; details: for LoVo/DX RI: resistance index = IC50 LoVo/DX / IC50 LoVo; for LoVo/DX SI: selectivity index = IC50 BALB/3T3 / IC50 LoVo/DX
Excerpt: as §1, §2, §3, §4, §5

LoVo [2] = experiment: cells; assay type: cell-based, human; details: for IC50: Homo sapiens, LoVo, 72 h, read-out: LoVo IC50 (nM); for LoVo SI: selectivity index = IC50 BALB/3T3 / IC50 LoVo
Excerpt: as §1, §2, §3, §4, §5

MCF-7 [3] = experiment: cells; assay type: cell-based, human; details: for IC50: Homo sapiens, MCF7, 72 h, read-out: MCF-7 IC50 (nM); for MCF-7 SI: selectivity index = IC50 BALB/3T3 / IC50 MCF-7
Excerpt: as §1, §2, §3, §4, §5

BALB/3T3 = experiment: In vitro antiproliferative activity, SRB assay, normal fibroblasts BALB/3T3; assay type: cell-based; details: Mus musculus, BALB/3T3, normal murine embryonic fibroblasts, 72 h, mean ± SD
Excerpt: as §1, §2, §3, §4, §5

[4] = tested on: A549, MCF-7, and LoVo cells; experiment: Antiproliferative activity, values quoted jointly for three tumor lines; assay type: cell-based, human; details: summary of Table 1; for IC50: Homo sapiens, read-out: IC50 against A549, MCF-7, and LoVo cells (span over the three lines)
Excerpt: as §1, §2, §3, §4, §5

A549 [5] = tested on: A549; design: method as in PMID 32295119; details: amide directly on C7; cited from earlier work
MCF-7 [6] = tested on: MCF-7; design: method as in PMID 32295119; details: amide directly on C7; cited from earlier work
LoVo [7] = tested on: LoVo; design: method as in PMID 32295119; details: cited from earlier work
A549 and MCF7 cells = tested on: A549 and MCF7 cells; design: method as in PMID 32295119; details: read-out: IC50 A549 and MCF7 of 7-amide (span); amide directly on C7; cited from earlier work
[8] = tested on: human colon adenocarcinoma cell lines; details: cited from earlier work
[9] = tested on: all cells used, both cancerous and normal; experiment: Antiproliferative activity, values quoted jointly for all cell lines tested; assay type: cell-based
Excerpt: as §1, with “Poland. […]” for “Poland.”
After 72 h of incubation with the tested compounds, the cells were fixed in situ by gently adding cold 50% trichloroacetic acid (TCA) (POCh, Poland) and were incubated at room temperature for 1 h. […] Absorbance of each solution was read at Synergy H4 Hybrid Multi-Mode Microplate Reader (BioTek Instruments) at the 540 nm wavelength.
IC50 values were calculated in Excel sheet using formulas adapted by Mateusz Psurski fromCheburator 0.4, Dmitry Nevozhay software (version 1.2.0 software by Dmitry Nevozhay, 2004–2014, http://www.cheburator.nevozhay.com, freely available) for each experiment.[58] […]

[10] = Homo sapiens, A549, 72 h, read-out: A549 IC50 (nM), 72 h exposure, SRB, mean ± SD
[11] = Homo sapiens, LoVo/DX, 72 h, read-out: LoVo/DX IC50 (nM), 72 h exposure, SRB, mean ± SD
[12] = read-out: LoVo/DX IC50, 72 h exposure, SRB, mean ± SD

Compound | IC50 (A549 [1]; [10]) | A549 SI (A549 [1]) | IC50 (LoVo/DX; [11]) | LoVo/DX RI (LoVo/DX) | LoVo/DX SI (LoVo/DX) | IC50 (LoVo [2]) | LoVo SI (LoVo [2]) | IC50 (MCF-7 [3]) | MCF-7 SI (MCF-7 [3]) | IC50 (BALB/3T3) | IC50 [4] | further results
CNc1ccc2c(cc1=O)[C@@H](n1cc(CN)nn1)CCc1cc(OC)c(OC)c(OC)c1-2 [Compound 8] | 70 ± 23 nM | 5.7 | 12000 ± 2400 nM | 86 | <0.1 | 140 ± 56 nM | 2.9 | 34 ± 16 nM | 11.8 | 400 ± 37 nM | 30 to 140 nM | –
CNc1ccc2c(cc1=O)[C@@H](n1cc(CNC(=O)OCC(C)C)nn1)CCc1cc(OC)c(OC)c(OC)c1-2 [Compound 40] | 1.2 to 1.9 nM | 3.3 | 310 ± 61 nM | 180 | <0.1 | 1.7 ± 0.2 nM | 2.3 | 1.2 ± 0.3 nM | 3.3 | 3.9 ± 0.2 nM | 1.2 to 1.7 nM | IC50 (A549 [1]; read-out: A549 IC50, 72 h exposure, SRB, mean ± SD): 1.2 ± 0.1 nM; SI for A549, MCF-7, and LoVo cells (span) [4]: 2.1–3.9
CNc1ccc2c(cc1=O)[C@@H](n1cc(CNC(=O)c3ccccc3Cl)nn1)CCc1cc(OC)c(OC)c(OC)c1-2 [Compound 35] | 5.7 ± 2 nM | 2.1 | ≤ 1000 nM | 160 | <0.1 | 6.3 ± 3.1 nM | 1.9 | 3.8 ± 0.4 nM | 3.2 | 12 ± 2.9 nM | 2.7 to 6.3 nM | IC50 (LoVo/DX; [12]): 1000 ± 97 nM
C=CCOC(=O)NCc1cn([C@H]2CCc3cc(OC)c(OC)c(OC)c3-c3ccc(NC)c(=O)cc32)nn1 [Compound 39] | 3.3 ± 0.5 nM | 2.8 | 440 ± 64 nM | 100 | <0.1 | 4.3 ± 0.6 nM | 2.1 | 2.6 ± 0.5 nM | 3.5 | 9.1 ± 2.6 nM | – | SI for A549, MCF-7, and LoVo cells (span) [4]: 2.1–3.9
CCCCCCCCCCCCCCCC(=O)N[C@H]1CCc2cc(OC)c(OC)c(OC)c2-c2ccc(NC)c(=O)cc21 [7-palmitamide] | – | – | – | – | – | – | – | – | – | – | – | SI A549 of 7-amide (A549 [5]): 0.9; SI MCF7 of 7-amide (MCF-7 [6]): 1.2; SI LoVo of 7-amide (LoVo [7]; amide directly on C7): 8.8; IC50 (LoVo [7]; read-out: IC50 LoVo of 7-amide, amide directly on C7 of 10-N-methylaminocolchicine): 62 nM; IC50 (A549 and MCF7 cells): 460 to 620 nM
CCOC(=O)c1cn([C@H]2CCc3cc(OC)c(OC)c(OC)c3-c3ccc(NC)c(=O)cc32)nn1 [Compound 19] | 17 ± 0.8 nM | 1.4 | 220 ± 23 nM | 17 | 0.1 | 13 ± 3.5 nM | 1.8 | 11 ± 3.7 nM | – | 24 ± 11 nM | 10 to 25 nM | –
CCCCc1cn([C@H]2CCc3cc(OC)c(OC)c(OC)c3-c3ccc(NC)c(=O)cc32)nn1 [Compound 7] | 6.4 ± 3.9 nM | 1.5 | < 30 nM | 7.4 | 0.4 | 3.1 ± 1.3 nM | 3.2 | 5.4 ± 3.7 nM | 1.8 | 9.9 ± 3.7 nM | 3.1 to 6.4 nM | IC50 (LoVo/DX; [12]): 23 ± 11 nM
CNc1ccc2c(cc1=O)[C@@H](n1cc(CNC(=O)C(Cl)Cl)nn1)CCc1cc(OC)c(OC)c(OC)c1-2 [Compound 31] | 3.3 ± 1.1 nM | 3.0 | ≤ 1000 nM | 270 | <0.1 | 3.1 ± 1.1 nM | 3.2 | 3 ± 1.5 nM | 3.3 | 9.9 ± 3 nM | 2.7 to 6.3 nM | IC50 (LoVo/DX; [12]): 830 ± 220 nM
CNc1ccc2c(cc1=O)[C@@H](n1ccnn1)CCc1cc(OC)c(OC)c(OC)c1-2 [Compound 5] | 6.1 ± 1.1 nM | 1.8 | 55 ± 20 nM | 9.8 | 0.2 | 5.6 ± 0.6 nM | 2.0 | 5.6 ± 1 nM | 2.0 | 11 ± 2.2 nM | 3.1 to 6.4 nM | –
CNc1ccc2c(cc1=O)C(NCc1ccccc1Cl)CCc1cc(OC)c(OC)c(OC)c1-2 (stereo not drawn) [7-N-(2-chlorobenzyl)-10-methylaminocolchcine] | – | – | – | – | – | – | – | – | – | – | – | calculated selectivity coefficients [8]: around 90
CNc1ccc2c(cc1=O)[C@@H](n1cc(CNC(=O)CCCCCl)nn1)CCc1cc(OC)c(OC)c(OC)c1-2 [Compound 32] | 4.4 ± 1.3 nM | 5.0 | 2800 ± 200 nM | 560 | <0.1 | 5 ± 0.4 nM | 4.4 | 2.7 ± 1.1 nM | 8.1 | 22 ± 5.6 nM | 2.7 to 6.3 nM | –
CNc1ccc2c(cc1=O)[C@@H](N=[N+]=[N-])CCc1cc(OC)c(OC)c(OC)c1-2 [Compound 4, 7-azido-10-N-methylaminocolchicine] | 1.4 ± 0.5 nM | 1.5 | 1.7 ± 0.6 nM | 1.5 | 1.2 | 1.1 ± 0.5 nM | 1.9 | 1.5 ± 0.3 nM | 1.4 | 2.1 ± 1.2 nM | – | SI (selectivity coefficients, all cancer lines) [9]: < 2; IC50 ([9]; cancerous and normal lines, read-out: IC50 against all cells used (span)): 1.1 to 2.1 nM
CNc1ccc2c(cc1=O)[C@@H](n1cc(CNC(=O)Oc3ccccc3)nn1)CCc1cc(OC)c(OC)c(OC)c1-2 [Compound 43] | 4.1 ± 0.6 nM | 2.7 | 920 ± 150 nM | 200 | <0.1 | 4.7 ± 1.1 nM | 2.3 | 2.8 ± 1.2 nM | 3.9 | 11 ± 0.4 nM | – | SI for A549, MCF-7, and LoVo cells (span) [4]: 2.1–3.9
